Values of other authors, collected in PMC9667546, “Selective Inhibition of Bruton’s Tyrosine Kinase by a Designed Covalent Ligand Leads to Potent Therapeutic Efficacy in Blood Cancers Relative to Clinically Used Inhibitors” (ACS Pharmacology & Translational Science, 2022).

Experiments:
BTK = BTK (Homo sapiens, UniProt Q06187); design: purchased Promega Corporation V2941; conditions: Table S3 heat map; ref SI 1-19; read-out: IC50, BTK; cited from earlier work
ITK = target: T1, ITK (Homo sapiens, UniProt Q08881); conditions: Table S3 heat map; ref SI 1-19; cited from earlier work
T1 construct: host or cells: HEK296T (so in the source)
T1 sequence (Q08881 1-620): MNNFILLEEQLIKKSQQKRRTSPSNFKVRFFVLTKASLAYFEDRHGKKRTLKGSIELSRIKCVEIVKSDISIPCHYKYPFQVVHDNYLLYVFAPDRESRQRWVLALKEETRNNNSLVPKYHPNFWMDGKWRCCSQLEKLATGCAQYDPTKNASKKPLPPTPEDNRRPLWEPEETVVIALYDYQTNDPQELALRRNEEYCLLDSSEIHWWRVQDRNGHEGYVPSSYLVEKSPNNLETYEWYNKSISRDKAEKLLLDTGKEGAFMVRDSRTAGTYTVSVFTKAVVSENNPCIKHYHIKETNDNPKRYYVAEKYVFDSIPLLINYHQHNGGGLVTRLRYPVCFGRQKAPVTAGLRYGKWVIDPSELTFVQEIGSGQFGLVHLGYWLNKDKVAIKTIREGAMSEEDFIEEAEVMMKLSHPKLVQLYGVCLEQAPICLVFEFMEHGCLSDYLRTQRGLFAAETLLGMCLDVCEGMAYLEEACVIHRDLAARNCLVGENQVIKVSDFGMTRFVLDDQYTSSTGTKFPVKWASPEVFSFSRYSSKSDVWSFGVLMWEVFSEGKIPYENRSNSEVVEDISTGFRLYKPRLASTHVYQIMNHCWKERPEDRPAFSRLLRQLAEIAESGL

JAK3 = target: T2, JAK3 (Homo sapiens, UniProt P52333); conditions: Table S3 heat map; ref SI 1-19; cited from earlier work
T2 construct: host or cells: HEK296T (so in the source)
T2 sequence (P52333 whole entry): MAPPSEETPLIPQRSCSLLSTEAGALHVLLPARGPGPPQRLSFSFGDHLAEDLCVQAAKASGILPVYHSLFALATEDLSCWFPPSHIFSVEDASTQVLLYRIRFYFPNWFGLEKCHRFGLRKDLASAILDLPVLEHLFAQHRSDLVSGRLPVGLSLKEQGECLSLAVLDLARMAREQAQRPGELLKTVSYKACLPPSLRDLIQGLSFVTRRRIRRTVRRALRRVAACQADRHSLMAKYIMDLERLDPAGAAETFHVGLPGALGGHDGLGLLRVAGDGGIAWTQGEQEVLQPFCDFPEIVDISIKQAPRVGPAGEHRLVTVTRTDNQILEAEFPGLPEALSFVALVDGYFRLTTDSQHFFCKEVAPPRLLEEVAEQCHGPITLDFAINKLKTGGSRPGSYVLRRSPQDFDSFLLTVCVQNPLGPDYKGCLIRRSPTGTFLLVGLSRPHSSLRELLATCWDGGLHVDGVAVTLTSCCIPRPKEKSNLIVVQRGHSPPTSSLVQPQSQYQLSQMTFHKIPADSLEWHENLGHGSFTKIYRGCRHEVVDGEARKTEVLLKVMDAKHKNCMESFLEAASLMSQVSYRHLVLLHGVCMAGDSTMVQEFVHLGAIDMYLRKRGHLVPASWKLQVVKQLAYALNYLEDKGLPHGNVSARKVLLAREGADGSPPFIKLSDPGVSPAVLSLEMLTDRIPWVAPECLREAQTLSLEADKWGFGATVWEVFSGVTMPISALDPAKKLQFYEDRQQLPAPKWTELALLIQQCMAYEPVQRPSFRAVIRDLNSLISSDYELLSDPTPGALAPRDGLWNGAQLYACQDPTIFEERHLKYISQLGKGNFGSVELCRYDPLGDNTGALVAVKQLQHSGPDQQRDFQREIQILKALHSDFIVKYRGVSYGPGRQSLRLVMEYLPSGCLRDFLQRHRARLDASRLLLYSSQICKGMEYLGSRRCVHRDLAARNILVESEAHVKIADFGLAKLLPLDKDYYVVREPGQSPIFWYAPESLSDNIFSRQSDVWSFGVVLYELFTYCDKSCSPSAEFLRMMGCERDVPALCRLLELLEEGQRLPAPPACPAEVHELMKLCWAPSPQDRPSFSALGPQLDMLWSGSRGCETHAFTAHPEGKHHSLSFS

Her2 = conditions: read-out: IC50, Her2; Table S3 heat map; ref SI 1-19; cited from earlier work
TEC = target: T3, TEC (Homo sapiens, UniProt P42680); conditions: Table S3 heat map; ref SI 1-19; cited from earlier work
T3 construct: host or cells: HEK296T (so in the source)
T3 sequence (P42680 1-631): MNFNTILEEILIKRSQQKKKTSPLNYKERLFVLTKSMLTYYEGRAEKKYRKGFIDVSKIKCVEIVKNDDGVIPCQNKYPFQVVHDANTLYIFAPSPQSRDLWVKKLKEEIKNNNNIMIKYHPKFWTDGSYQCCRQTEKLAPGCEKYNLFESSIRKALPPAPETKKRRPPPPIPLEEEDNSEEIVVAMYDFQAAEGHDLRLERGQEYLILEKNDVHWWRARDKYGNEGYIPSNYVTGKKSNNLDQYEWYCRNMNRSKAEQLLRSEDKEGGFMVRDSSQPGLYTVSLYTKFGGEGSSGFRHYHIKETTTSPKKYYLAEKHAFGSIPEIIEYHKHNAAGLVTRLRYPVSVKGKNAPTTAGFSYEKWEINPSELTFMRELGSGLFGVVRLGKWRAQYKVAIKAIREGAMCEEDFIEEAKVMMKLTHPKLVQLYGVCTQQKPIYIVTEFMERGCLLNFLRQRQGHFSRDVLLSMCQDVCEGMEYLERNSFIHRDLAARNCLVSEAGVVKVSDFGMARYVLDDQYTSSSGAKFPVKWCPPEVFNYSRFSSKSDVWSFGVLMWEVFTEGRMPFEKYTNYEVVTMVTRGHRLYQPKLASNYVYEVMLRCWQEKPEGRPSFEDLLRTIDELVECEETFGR

TXK = target: T4, TXK (Homo sapiens, UniProt P42681); conditions: Table S3 heat map; ref SI 1-19; cited from earlier work
T4 construct: host or cells: HEK296T (so in the source)
T4 sequence (P42681 1-527): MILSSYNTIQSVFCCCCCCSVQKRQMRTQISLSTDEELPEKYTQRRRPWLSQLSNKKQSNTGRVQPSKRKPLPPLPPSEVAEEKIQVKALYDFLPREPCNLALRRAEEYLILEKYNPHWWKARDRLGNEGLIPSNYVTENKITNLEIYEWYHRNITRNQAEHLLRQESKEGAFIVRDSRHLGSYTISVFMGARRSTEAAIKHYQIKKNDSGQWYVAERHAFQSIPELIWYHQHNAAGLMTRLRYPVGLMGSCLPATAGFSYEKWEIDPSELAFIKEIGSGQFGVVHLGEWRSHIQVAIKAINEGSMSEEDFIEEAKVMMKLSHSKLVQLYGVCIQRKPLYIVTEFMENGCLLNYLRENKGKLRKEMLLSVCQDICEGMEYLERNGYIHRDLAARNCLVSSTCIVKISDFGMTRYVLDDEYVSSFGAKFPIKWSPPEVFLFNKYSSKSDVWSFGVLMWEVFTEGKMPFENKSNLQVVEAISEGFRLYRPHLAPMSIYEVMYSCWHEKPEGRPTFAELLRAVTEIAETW

EGFR = target: T5, EGFR (Homo sapiens, UniProt P00533); conditions: Table S3 heat map; ref SI 1-19; cited from earlier work
T5 construct: host or cells: HEK296T (so in the source)
T5 sequence (P00533 25-1210): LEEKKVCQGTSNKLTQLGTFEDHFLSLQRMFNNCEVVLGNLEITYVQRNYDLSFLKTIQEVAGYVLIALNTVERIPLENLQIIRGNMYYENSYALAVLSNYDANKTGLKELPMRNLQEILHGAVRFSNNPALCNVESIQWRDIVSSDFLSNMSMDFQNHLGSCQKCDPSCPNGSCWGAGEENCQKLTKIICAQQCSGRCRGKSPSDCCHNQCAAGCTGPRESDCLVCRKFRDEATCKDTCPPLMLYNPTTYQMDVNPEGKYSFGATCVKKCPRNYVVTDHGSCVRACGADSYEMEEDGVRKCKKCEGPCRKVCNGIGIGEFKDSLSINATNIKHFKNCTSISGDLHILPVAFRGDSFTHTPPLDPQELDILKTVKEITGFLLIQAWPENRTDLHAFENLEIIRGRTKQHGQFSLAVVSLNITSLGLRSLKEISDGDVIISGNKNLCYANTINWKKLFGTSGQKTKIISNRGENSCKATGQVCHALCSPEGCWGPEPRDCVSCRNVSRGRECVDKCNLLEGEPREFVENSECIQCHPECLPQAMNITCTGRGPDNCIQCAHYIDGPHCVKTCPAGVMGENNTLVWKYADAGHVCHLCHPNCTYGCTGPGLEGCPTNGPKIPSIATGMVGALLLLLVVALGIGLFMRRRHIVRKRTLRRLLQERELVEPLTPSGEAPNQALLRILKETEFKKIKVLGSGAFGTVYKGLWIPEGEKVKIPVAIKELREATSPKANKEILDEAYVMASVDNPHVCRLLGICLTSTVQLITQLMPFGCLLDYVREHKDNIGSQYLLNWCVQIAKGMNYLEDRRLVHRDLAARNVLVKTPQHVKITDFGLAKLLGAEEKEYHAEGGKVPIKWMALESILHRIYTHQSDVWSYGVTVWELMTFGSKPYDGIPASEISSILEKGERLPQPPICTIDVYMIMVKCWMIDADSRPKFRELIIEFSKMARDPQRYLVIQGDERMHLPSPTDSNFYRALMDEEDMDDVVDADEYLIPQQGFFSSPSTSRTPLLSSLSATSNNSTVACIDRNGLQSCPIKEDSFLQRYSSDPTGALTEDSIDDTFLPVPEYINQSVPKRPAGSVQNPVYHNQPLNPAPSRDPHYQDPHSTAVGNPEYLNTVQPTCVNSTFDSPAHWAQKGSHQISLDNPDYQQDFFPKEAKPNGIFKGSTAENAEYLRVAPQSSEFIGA

Chain of BTK (Q06187 whole entry): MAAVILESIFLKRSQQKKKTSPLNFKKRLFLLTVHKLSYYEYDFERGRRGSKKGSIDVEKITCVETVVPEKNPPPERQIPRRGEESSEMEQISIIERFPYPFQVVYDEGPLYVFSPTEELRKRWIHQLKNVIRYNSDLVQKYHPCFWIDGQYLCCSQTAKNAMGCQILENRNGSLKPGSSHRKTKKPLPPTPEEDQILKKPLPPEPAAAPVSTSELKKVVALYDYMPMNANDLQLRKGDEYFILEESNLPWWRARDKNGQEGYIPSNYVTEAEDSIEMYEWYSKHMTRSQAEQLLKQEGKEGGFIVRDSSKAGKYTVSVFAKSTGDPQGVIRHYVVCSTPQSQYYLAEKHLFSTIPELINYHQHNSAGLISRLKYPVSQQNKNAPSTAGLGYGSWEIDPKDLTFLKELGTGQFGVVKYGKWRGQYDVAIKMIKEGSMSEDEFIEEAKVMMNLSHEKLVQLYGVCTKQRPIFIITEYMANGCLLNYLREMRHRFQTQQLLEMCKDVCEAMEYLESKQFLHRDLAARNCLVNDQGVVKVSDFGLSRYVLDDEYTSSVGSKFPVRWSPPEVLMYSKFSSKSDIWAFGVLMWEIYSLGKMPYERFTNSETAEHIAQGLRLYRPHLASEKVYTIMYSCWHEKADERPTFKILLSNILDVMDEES

SMILES: CC#CC(=O)N1CC[C@@H](n2cc(-c3ccc(Oc4c(F)cccc4F)cc3)c3c(N)n[nH]c(=O)c32)C1 [TG-1701]
- IC50 (BTK): 3 nM
- IC50 (ITK): > 3000 nM
- IC50 (JAK3): > 3000 nM
- IC50 (Her2): > 3000 nM
- IC50 (TEC): 4 nM
- IC50 (TXK): 136 nM
- IC50 (EGFR): 270 nM
